For 30 compounds, Kd results are on record in patent US10323036B2 (Nimbus Lakshmi, Inc., priority 2016, dated 2019).

Sequence of human TYK2 (JH2domain-pseudokinase) (P29597 556-888): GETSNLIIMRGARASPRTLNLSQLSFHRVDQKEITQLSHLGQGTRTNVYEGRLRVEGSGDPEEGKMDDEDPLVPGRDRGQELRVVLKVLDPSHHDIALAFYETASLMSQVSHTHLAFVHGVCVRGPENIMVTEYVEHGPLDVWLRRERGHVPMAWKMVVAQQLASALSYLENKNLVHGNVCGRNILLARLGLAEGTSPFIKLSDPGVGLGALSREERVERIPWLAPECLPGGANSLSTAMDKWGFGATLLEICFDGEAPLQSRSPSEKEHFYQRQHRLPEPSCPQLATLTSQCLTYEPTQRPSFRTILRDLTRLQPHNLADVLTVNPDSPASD

The assay has as its target human TYK2 (JH2domain-pseudokinase) (Homo sapiens (Human), UniProt P29597). Put plainly: TYK2 JH2 Domain Binding Assay (KINOMEscan). The conditions noted are these: Table 4, JH2 binding assay; read-out: JH2 Kd.
Broadly, the Kd is the constant that tells how readily two partners part at equilibrium. Consider `Cn1[nH]c2nc(Nc3cccc(C(F)(F)F)n3)cc(Nc3ccc(Cl)cc3S(C)(=O)=O)c2c1=O` [Compound I-209, 4-((4-chloro-2-(methylsulfonyl)phenyl)amino)-2-methyl-6-((6-(trifluoromethyl)-pyridin-2-yl)amino)-1,2-dihydro-3H-pyrazolo[3,4-b]pyridin-3-one], for which the equilibrium dissociation constant (Kd) fell in the range of 0.5 to 1 nM. Then `Cn1[nH]c2nc(NC(=O)[C@@H]3C[C@@H]3F)cc(Nc3ccc(C4CC4)cc3S(C)(=O)=O)c2c1=O` [Compound I-210], with 0.1 to 0.5 nM; and `Cc1ncc(Nc2cc(Nc3ccc(C4CC4)cc3S(C)(=O)=O)c3c(=O)n(C)[nH]c3n2)nc1C` [Compound I-211, 4-((4-cyclopropyl-2-(methylsulfonyl)phenyl)amino)-6-((5,6-dimethylpyrazin-2-yl)amino)-2-methyl-1,2-dihydro-3H-pyrazolo[3,4-b]pyridin-3-one], with 0.5 to 1 nM; and `Cn1[nH]c2nc(Nc3cncc(C#N)n3)cc(Nc3ccc(C4CC4)cc3S(C)(=O)=O)c2c1=O` [Compound I-212, 6-((4-((4-cyclopropyl-2-(methylsulfonyl)phenyl)amino)-2-methyl-3-oxo-2,3-dihydro-1H-pyrazolo[3,4-b]pyridin-6-yl)amino)pyrazine-2-carbonitrile], with more than 10 nM. Then `Cn1[nH]c2nc(Nc3ccc(C#N)cn3)cc(Nc3ccc(C4CC4)cc3S(C)(=O)=O)c2c1=O` [Compound I-213, 6-((4-((4-cyclopropyl-2-(methylsulfonyl)phenyl)amino)-2-methyl-3-oxo-2,3-dihydro-1H-pyrazolo[3,4-b]pyridin-6-yl)amino)nicotinonitrile], with 0.1 to 0.5 nM. Then `COCc1ccnc(Nc2cc(Nc3ccc(C4CC4)cc3S(C)(=O)=O)c3c(=O)n(C)[nH]c3n2)c1` [Compound I-214, 4-((4-cyclopropyl-2-(methylsulfonyl)phenyl)amino)-6-((4-(methoxymethyl)pyridin-2-yl)amino)-2-methyl-1,2-dihydro-3H-pyrazolo[3,4-b]pyridin-3-one], with 0.1 to 0.5 nM. On to `Cn1[nH]c2nc(Nc3cccc(C(F)(F)F)n3)cc(Nc3ccc(C4CC4)cc3S(C)(=O)=O)c2c1=O` [Compound I-215, 4-((4-cyclopropyl-2-(methylsulfonyl)phenyl)amino)-2-methyl-6-((6-(trifluoromethyl)pyridin-2-yl)amino)-1,2-dihydro-3H-pyrazolo[3,4-b]pyridin-3-one], for which the Kd is 0.1 to 0.5 nM. Then `CN(c1ccccc1Nc1cc(NC(=O)[C@@H]2C[C@@H]2F)nc2[nH]n(C)c(=O)c12)S(C)(=O)=O` [Compound I-216, (1S,2S)-2-fluoro-N-(2-methyl-4-((2-(N-methylmethylsulfonamido)phenyl)amino)-3-oxo-2,3-dihydro-1H-pyrazolo[3,4-b]pyridin-6-yl)cyclopropane-1-carboxamide], with 0.1 to 0.5 nM. Then `CCc1ccc(Nc2cc(NC(=O)C3CC3)nc3[nH]n(C)c(=O)c23)c(N(C)S(C)(=O)=O)c1` [Compound I-217, N-(4-((4-ethyl-2-(N-methylmethylsulfonamido)phenyl)amino)-2-methyl-3-oxo-2,3-dihydro-1H-pyrazolo[3,4-b]pyridin-6-yl)cyclopropanecarboxamide], with less than 0.1 nM. Then `COCc1ccc(Nc2cc(NC(=O)C3CC3)nc3[nH]n(C)c(=O)c23)c(N(C)S(C)(=O)=O)c1` [Compound I-218], with less than 0.1 nM. In the case of `CN(c1cc(N2CCC2)ccc1Nc1cc(NC(=O)C2CC2)nc2[nH]n(C)c(=O)c12)S(C)(=O)=O` [Compound I-219, N-(4-((4-(azetidin-1-yl)-2-(N-methylmethylsulfonamido)phenyl)amino)-2-methyl-3-oxo-2,3-dihydro-1H-pyrazolo[3,4-b]pyridin-6-yl)cyclopropanecarboxamide], the Kd was 0.1 to 0.5 nM. `COC1CN(c2ccc(Nc3cc(NC(=O)C4CC4)nc4[nH]n(C)c(=O)c34)c(N(C)S(C)(=O)=O)c2)C1` [Compound I-220, N-(4-((4-(3-methoxyazetidin-1-yl)-2-(N-methylmethylsulfonamido)phenyl)amino)-2-methyl-3-oxo-2,3-dihydro-1H-pyrazolo[3,4-b]pyridin-6-yl)cyclopropane-carboxamide]: the equilibrium dissociation constant (Kd) lay in the range of 0.1 to 0.5 nM. Regarding `COc1c(Cl)cccc1Nc1cc(Nc2cc3n(n2)CCOC3)nc2[nH]n(C)c(=O)c12` [Compound I-221, 4-((3-chloro-2-methoxyphenyl)amino)-6-((6,7-dihydro-4H-pyrazolo[5,1-c][1,4]oxazin-2-yl)amino)-2-methyl-1,2-dihydro-3H-pyrazolo[3,4-b]pyridin-3-one], the Kd lay within 0.1 to 0.5 nM. Then `COc1c(Cl)cccc1Nc1cc(Nc2cc3n(n2)CCCC3)nc2[nH]n(C)c(=O)c12` [Compound I-222, 4-((3-chloro-2-methoxyphenyl)amino)-2-methyl-6-((4,5,6,7-tetrahydropyrazolo[1,5-a]pyridin-2-yl)amino)-1,2-dihydro-3H-pyrazolo[3,4-b]pyridin-3-one], with 1 to 10 nM; and `COc1cccnc1Nc1cc(NC(=O)C2CC2)nc2[nH]n(C)c(=O)c12` [Compound I-223, N-(4-((3-methoxypyridin-2-yl)amino)-2-methyl-3-oxo-2,3-dihydro-1H-pyrazolo[3,4-b]pyridin-6-yl)cyclopropanecarboxamide], with 1 to 10 nM; and `CN(c1ccccc1Nc1cc(Nc2cnc3c(n2)CCC3)nc2[nH]n(C)c(=O)c12)S(C)(=O)=O` [Compound I-225, N-(2-((6-((6,7-dihydro-5H-cyclopenta[b]pyrazin-2-yl)amino)-2-methyl-3-oxo-2,3-dihydro-1H-pyrazolo[3,4-b]pyridin-4-yl)amino)phenyl)-N-methylmethanesulfonamide], with less than 0.1 nM.

As for `CN(c1ccccc1Nc1cc(Nc2cc3c(cn2)OCC3)nc2[nH]n(C)c(=O)c12)S(C)(=O)=O` [Compound I-226, N-(2-((6-((2,3-dihydrofuro[2,3-c]pyridin-5-yl)amino)-2-methyl-3-oxo-2,3-dihydro-1H-pyrazolo[3,4-b]pyridin-4-yl)amino)phenyl)-N-methylmethanesulfonamide], the Kd lay in the range of 0.1 to 0.5 nM. Then `CN(c1ccccc1Nc1cc(Nc2cc3c(cn2)COC3)nc2[nH]n(C)c(=O)c12)S(C)(=O)=O` [Compound I-227, N-(2-((6-((1,3-dihydrofuro[3,4-c]pyridin-6-yl)amino)-2-methyl-3-oxo-2,3-dihydro-1H-pyrazolo[3,4-b]pyridin-4-yl)amino)phenyl)-N-methylmethanesulfonamide], with less than 0.1 nM; and `CN(c1cc(Cl)ccc1Nc1cc(NC(=O)C2CC2)nc2[nH]n(C)c(=O)c12)S(C)(=O)=O` [Compound I-228, N-(4-((4-chloro-2-(N-methylmethylsulfonamido)phenyl)amino)-2-methyl-3-oxo-2,3-dihydro-1H-pyrazolo[3,4-b]pyridin-6-yl)cyclopropanecarboxamide], with 0.1 to 0.5 nM. Turning to `Cc1ccc(Nc2cc(NC(=O)C3CC3)nc3[nH]n(C)c(=O)c23)c(N(C)S(C)(=O)=O)c1` [Compound I-229, N-(2-methyl-4-((4-methyl-2-(N-methylmethylsulfonamido)phenyl)amino)-3-oxo-2,3-dihydro-1H-pyrazolo[3,4-b]pyridin-6-yl)cyclopropanecarboxamide], the dissociation constant (Kd) is less than 0.1 nM. Then `CN(c1cc(F)c(F)cc1Nc1cc(NC(=O)C2CC2)nc2[nH]n(C)c(=O)c12)S(C)(=O)=O` [Compound I-230, N-(4-((4,5-difluoro-2-(N-methylmethylsulfonamido)phenyl)amino)-2-methyl-3-oxo-2,3-dihydro-1H-pyrazolo[3,4-b]pyridin-6-yl)cyclopropanecarboxamide], with 0.5 to 1 nM; and `COc1c(Nc2cc(NC(=O)C3CC3)nc3[nH]n(C)c(=O)c23)cccc1C(=O)O` [Compound I-231, 3-((6-(cyclopropanecarboxamido)-2-methyl-3-oxo-2,3-dihydro-1H-pyrazolo[3,4-b]pyridin-4-yl)amino)-2-methoxybenzoic acid], with 1 to 10 nM. Take `CN(c1cc(C2CC2)ccc1Nc1cc(NC(=O)C2CC2)nc2[nH]n(C)c(=O)c12)S(C)(=O)=O` [Compound I-232]: the equilibrium dissociation constant (Kd) was less than 0.1 nM.

On to `CN(c1cc(C2CCOCC2)ccc1Nc1cc(NC(=O)C2CC2)nc2[nH]n(C)c(=O)c12)S(C)(=O)=O` [Compound I-234], for which the Kd is 0.1 to 0.5 nM.

Turning to `CN(c1cc(C(F)(F)F)ccc1Nc1cc(NC(=O)C2CC2)nc2[nH]n(C)c(=O)c12)S(C)(=O)=O` [Compound I-235, N-(2-methyl-4-((2-(N-methylmethylsulfonamido)-4-(trifluoromethyl)phenyl)amino)-3-oxo-2,3-dihydro-1H-pyrazolo[3,4-b]pyridin-6-yl)cyclopropanecarboxamide], the Kd lay within 0.1 to 0.5 nM. Then `CN(c1cc(C2CCC2)ccc1Nc1cc(NC(=O)[C@@H]2C[C@@H]2F)nc2[nH]n(C)c(=O)c12)S(C)(=O)=O` [Compound I-236, (1S,2S)-N-(4-((4-cyclobutyl-2-(N-methylmethylsulfonamido)phenyl)amino)-2-methyl-3-oxo-2,3-dihydro-1H-pyrazolo[3,4-b]pyridin-6-yl)-2-fluorocyclopropane-1-carboxamide], with more than 10 nM. Then `Cn1[nH]c2nc(NC(=O)[C@@H]3CC3(F)F)cc(Nc3ccc(C4CC4)cc3S(C)(=O)=O)c2c1=O` [Compound I-237], with 1 to 10 nM. Then `Cn1[nH]c2nc(NC(=O)[C@H]3CC3(F)F)cc(Nc3ccc(C4CC4)cc3S(C)(=O)=O)c2c1=O` [Compound I-238, (R)-N-(4-((4-cyclopropyl-2-(methylsulfonyl)phenyl)amino)-2-methyl-3-oxo-2,3-dihydro-1H-pyrazolo[3,4-b]pyridin-6-yl)-2,2-difluorocyclopropane-1-carboxamide], with 0.1 to 0.5 nM; and `Cn1[nH]c2nc(NC(=O)C3CC3(F)F)cc(Nc3ccc(C4CC4)cc3S(C)(=O)=O)c2c1=O` (stereo not drawn) [Compound I-239, N-(4-((4-cyclopropyl-2-(methylsulfonyl)phenyl)amino)-2-methyl-3-oxo-2,3-dihydro-1H-pyrazolo[3,4-b]pyridin-6-yl)-2,2-difluorocyclopropane-1-carboxamide], with 0.1 to 0.5 nM; and `CN(c1cc(C2CCCOC2)ccc1Nc1cc(NC(=O)C2CC2)nc2[nH]n(C)c(=O)c12)S(C)(=O)=O` (stereo not drawn) [Compound I-240], with 0.1 to 0.5 nM.
